Results on 6 substances are retold here after US7033829B2, “Method to inhibit cell growth using oligonucleotides” (Trustees of Boston University, priority 2000, dated 2006).

Oligonucleotides are written 5' to 3', each unit as a sugar letter and its base; * is a phosphorothioate linkage, no mark a phosphodiester; rarer units and linkages stand in square brackets, end groups in braces. Plain capitals give the bases only. d = 2'-deoxy (DNA); {P} = phosphate

One series deals with Jurkat cells. Description: FACS cell cycle / apoptosis analysis of Jurkat cells. Type of series: cell-based, human. To be noted: for cell cycle profile: 0.4 μM; for apoptosis in human T cells: summary of Example 13; for cells accumulated in the S-phase: 5 μM, within 72 hours (diluent 36%). The method, then: Oligonucleotides homologous to the telomere overhang repeat sequence (TTAGGG; SEQ ID NO:11), sequence (11mer-1: pGTTAGGGTTAG; SEQ ID NO: 5), complementary to this sequence (11mer-2: pCTAACCCTAAC; SEQ ID NO: 9) and unrelated to the telomere sequence (11mer-3: pGATCGATCGAT; SEQ ID NO: 10) were added to cultures of Jurkat cells, a line of human T cells, one of the cell types reported to undergo apoptosis in response to telomere disruption. Within 48 hours, 50% of the cells treated with 40 μM of SEQ ID NO: 5 had accumulated in the S phase, compared to 25–30% for control cells (p<0.0003, non-paired t-test; see FIGS. 19A–19D), and by 72 hours, 13% of these cells were apoptotic as determined by a sub-G0/G1 DNA content, compared to 2–3% of controls (p<0.007, non-paired t-test; see FIGS. 19E–19H). At 96 hours, 20±3% of the 11mer-1 treated cells were apoptotic compared with 3–5% of controls (p<0.0001, non-paired t-test). To exclude preferential uptake of the 11mer-1 as an explanation of its singular effects, Jurkat cells were treated with oligonucleotides labeled on the 3′ end with fluorescein phosphoramidite, then subjected to confocal microscopy and FACS analysis. The fluorescence intensity of the cells was the same after all treatments at 4 hours and 24 hours.
Three DNA oligonucleotides were designed initially: one homologous to the telomere overhang (11mer-1: pGTTAGGGTTAG; SEQ ID NO:5), one complementary to this sequence (11mer-2: pCTAACCCTAAC; SEQ ID NO:9) and one unrelated (11mer-3: pGATCGATCGAT; SEQ ID NO:10). For later experiments, additional 11 base oligonucleotides were designed: one a simple permutation of 11mer-1 (pGGGTTAGGGTT; SEQ ID NO:13), one with the same number of G residues but roughly 50% rather than 100% homology to the overhang (pTAGATGTGGTG; SEQ ID NO:14), and one with roughly 50% overhang homology but also containing cytosine bases (pCGGGCTTATTG; SEQ ID NO:15) (Midland Certified Reagent Company, Midland, Tex.). Cell Sources and Culture Human neonatal fibroblasts were established and cultured as previously described (Eller, M. S., et al., 1997, Proc Natl Acad Sci USA 94: 12627–12632). Fibroblasts from a Nijmegen breakage syndrome (NBS) patient (#GM07166) and an age-matched control (GM03399) were purchased from the NIGMS Human Cell Repository, Coriell Institute for Medical Research, Camden, N.J.) and cultured in DMEM/15% FBS. Saos-2 cells were purchased from the American Type Culture Collection (ATCC; Manassas, Va.). SCC12F cells were the kind gift of Dr. James Rheinwald, Harvard University. Cell Cycle Analysis The established line of human T lymphocytes, termed Jurkat cells (180,000 cells/ml) were plated in RPMI medium 1640 supplemented with 3% FBS (both from GIBCO/BRL, Gaithersburg, Md.). […] Cells were collected up to 96 hours after treatment, stained with propidium iodide and analyzed by FACS using a Becton-Dickinson FacsScan and CellQuest software. Caspase Activity
Oligonucleotides homologous to the 3′ overhang sequence (11mer-1: pGTTAGGGTTAG; SEQ ID NO:5), complementary to this sequence (11mer-2: pCTAACCCTAAC; SEQ ID NO:9) and unrelated to the telomere sequence (11mer-3: pGATCGATCGAT; SEQ ID NO:10) were synthesized. The three 11mer oligonucleotides were added to cultures of Jurkat cells, an established line of human T lymphocytes, a cell type reported to undergo apoptosis in response to telomere disruption [Karlseder, J., et al, (1999) Science 283, 1321–1325] and DNA damaging ionizing radiation (IR) [Vigorito, E., et al, (1999), Hematol Cell Ther 41, 153–161]. Duplicate cultures of Jurkat cells were treated with a final concentration of 40 μM 11mer-1, -2 or -3, oligonucleotides, or an equal volume of diluent (water) as a control. Cells were collected up to 96 hours after treatment, stained with propidium iodideandanalyzed by FACS. See also Example 13 and FIGS. 19A–19H.
To further confirm the specificity of these responses to the telomere overhang sequence, three variations were tested. […]

Series [1] relates to normal neonatal human fibroblasts. Kind of series: FACS analysis of normal neonatal fibroblasts. It counts as cell-based. Particulars: 40 μM; for S-phase checkpoint: within 24 hours. The method, then:
The averages and standard deviations presented in FIGS. 32A–32D were determined from triplicate samples. One representative experiment of three is presented. […] Control 11-base oligonucleotides complementary (11mer-2) or unrelated (11mer-3) to the telomere overhang had no effect on the cells.
For orientation: In flow cytometry, cells or beads pass a laser one at a time.

Series [2] in a line: Skin penetration of fluorescently-labeled oligonucleotides (ear). Type of series: in vivo, Mice. To be noted: in propylene glycol, 4 hours. The method, then: The compounds of the present invention were tested for skin penetration and in vivo melanogenic activity. Mice were treated (on their ears) with fluorescently-labeled pTpT or SEQ ID NO: 1 (comprising a 5′ phosphate) in propylene glycol for 4 hours, then ear skin was sectioned and examined by confocal microscopy. […] Thus pTpT and SEQ ID NO: 1 comparably penetrate the skin barrier.

Series [3] deals with Apurinic Endonuclease-1 (APE-1). Description: APE-1 western blot in fibroblasts. It counts as cell-based, human. To be noted: 100 μM pTpT; 10 μM or 60 μM SEQ ID NO:5; within 24 hours, sustained at least 48 hours. The procedure:
Fibroblasts (human newborn) were maintained in 10% CS-supplemented DMEM containing 100 μM pTpT, 10 μM or 60 μM oligonucleotide pGTTAGGGTTAG (SEQ ID NO:5), or diluent as control. Total cellular proteins were harvested at different intervals after supplementation and processed for western blot analysis. Expression of APE-1, the rate-limiting enzyme in repair of 8-oxoguanine (the principal form of oxidative DNA damage) was studied. The blot was incubated with anti APE-1 antibodies (APE/Ref-1 monoclonal IgG2b, Novus Biologicals, Inc. Littleton, Colo.). Within 24 hours of supplementation with pTpT or the 11mer oligonucleotide having nucleotide sequence SEQ ID NO:5, the 37 kDa APE-1 protein was induced in samples stimulated with the oligonucleotides as compared to diluent control. The induction was sustained for at least 48 hours, when the experiment was terminated. Coomassie blue-stained residual bands on the gel confirmed uniform loading of the different lanes.
(In western blotting, separated proteins are transferred to a membrane and probed.)

Turning to “11mer-1-S: phosphorothioate 11mer-1 (dG*dT*dT*dA*dG*dG*dG*dT*dT*dA*dG; further chemistry not fully specified)”, the cell cycle profile result with Jurkat cells (96 hours) was “neither of the oligonucleotides affected”. The “apoptosis (sub-G0/G1 peak)” value in the series on Jurkat cells (40 μM, 96 hours) is given as “had no effect”.

In the case of “pCTAACCCTAAC (DNA, 5' {P}, backbone not given here) [SEQ ID NO: 9, reference compound]”, the “apoptosis in human T cells” value in the series with Jurkat cells is listed as “did not significantly increase apoptosis”. Besides, the S-phase checkpoint entry in series [1] is recorded as “had no effect”.

Consider “pGAGTATGAG (DNA, 5' {P}, backbone not given here) [SEQ ID NO: 1]”, for which the “skin penetration (confocal microscopy)” value in series [2] was “brightly stained epidermis and hair follicles”.

On to “pGATCGATCGAT (DNA {P}-dGdAdTdCdGdAdTdCdGdAdT) [SEQ ID NO: 10, reference compound]”, for which the “apoptosis in human T cells” value in the series on Jurkat cells was “did not significantly increase apoptosis”. Moreover, in series [1], the S-phase checkpoint entry was “had no effect”.

On to “pGTTAGGGTTAG (DNA {P}-dGdTdTdAdGdGdGdTdTdAdG) [SEQ ID NO: 5]”, for which the cell cycle profile result in the series with Jurkat cells (96 hours) was “neither of the oligonucleotides affected”. For the same substance, in the series with Jurkat cells, the “cells accumulated in the S-phase” value worked out at 61% and the “apoptosis in human T cells” value was “induced human T cells to undergo apoptosis”. Moreover, the “treated cells in the S-phase” value with Jurkat cells (20 μM, 72 hours) is on record as 58±1%. In addition, in the series on Jurkat cells (40 μM, 72 hours), the “apoptotic cells (sub-G0/G1 DNA content)” value was 13% and the “cells in S phase” value is listed as 38%. Besides, in the series on Jurkat cells (40 μM, 96 hours), the “apoptosis (sub-G0/G1 peak)” value was “induced extensive apoptosis” and the apoptotic cells is 20±3%. Moreover, the “cells accumulated in the S phase” value in the series on Jurkat cells (40 μM, within 48 hours) came out at 50%. For the same substance, the “activity of the two complete telomere overhang homologs” value in the series with Jurkat cells (separate paired cultures) is given as “equal in activity”. In addition, the APE-1 protein entry in series [3] is listed as “induced”. Besides, the apoptotic cells entry in series [1] (up to 72 hours) is on record as “no apoptotic cells were detected”. Further, the S-phase checkpoint entry in series [1] is “activation of an S-phase checkpoint”.

As to thymidine dinucleotide [pTpT], the “skin penetration (confocal microscopy)” value in series [2] is “brightly stained epidermis and hair follicles”. In the series with Jurkat cells, the “higher concentration needed to duplicate the 11mer-1 effect on cell cycle arrest” value was found to be 4 fold and the “cells accumulated in the S-phase” value was determined as 45%. In addition, the “treated cells in the S-phase” value in the series with Jurkat cells (20 μM, 72 hours) turned out to be 53±1%. For the same substance, the apoptosis entry with Jurkat cells (20 μM, even at 96 hours) is “No apoptosis was detected”. In series [3], the APE-1 protein entry was “induced”.
